GFP-LC3 puncta formation data for 2 compounds are collected here from patent US9005677B2, “Autophagy enhancer for treatment of neurodegenerative diseases” (Macau University of Science and Technology, priority 2013, dated 2015).

The test system of this assay is GFP-LC3 puncta formation in PC12 cells. Put plainly: Quantification of autophagy GFP-LC3 puncta. Conditions: fluorescent microscopy. The class given is cell-based, rat. The method, then:
Quantification of autophagy GFP-LC3 Puncta. GFP-LC3 puncta formation was quantified as described previously. In brief, cells grown on coverslips in a 6-well plate were fixed in 4% paraformaldehyde for 20 minutes at room temperature and then rinsed with PBS. Slides were mounted with FluorSave™ mounting media (Calbiochem, San Diego, Calif.) and examined by fluorescence microscopy. The number of GFP-positive cells with GFP-LC3 puncta formation was examined under the Nikon ECLIPSE 80i microscope. Representative images were captured with CCD digital camera Spot RT3™ (Diagnostic Instruments, Inc., Melville, N.Y.). To quantify autophagy, the percentage of cells with punctate GFP-LC3 fluorescence was calculated by counting the number of the cells with punctate GFP-LC3 fluorescence in GFP-positive cells. A minimum of 150 cells from 3 randomly selected fields was scored.

Structures are written as SMILES.

On to `CC1(C)CCC2(C(=O)O)C(O)CC3(C)C(=CCC4C5(C)CC(O)C(O)C(C)(CO)C5CCC43C)C2C1` (centres unmarked) [polygalacic acid], for which the GFP-LC3 puncta formation entry was “no autophagy activity”.

In the case of `CC1(C)CC[C@]2(C(=O)O)CCC3=C([C@@H](CCl)C[C@@H]4[C@@]5(C)C[C@H](O)[C@H](O)[C@@](C)(C(=O)O)[C@@H]5CC[C@@]34C)[C@@H]2C1` [senegenin], the GFP-LC3 puncta formation result is “no autophagy activity”.
